From paper PMC10827914 (Cellular and Molecular Life Sciences: CMLS, 2024)

Legend:
[1] = tested on: membrane CD13 expressed by HUVEC; assay: Competitive binding of anti-CD13 mAb WM15 to HUVEC by flow cytometry; set-up: species or system human
Procedure: HUVEC were seeded in 96-well U-bottom polystyrene microtiter plates at a density of 2 × 10^5 cells in 100 µL DPBS supplemented with 5% normal human serum (NHS) and mixed with a mixture of peptide G4 ranging from 0 to 10 µM and mAb WM15 (0 or 0.13 nM). The chromogranin A429-439 peptide fragment (CgA429-439) was used instead of G4 as a control. After 1 h of incubation at 4 °C, the cells were washed and resuspended in 100 µL of DPBS containing 5% NHS and 1 µg/mL of FITC-labeled goat anti-mouse IgG secondary antibody. Cells were subsequently incubated for 1 h at 4 °C, washed, and analyzed by flow cytometry. All flow cytometry data were collected on a CytoFLEX S flow cytometer (Beckman Coulter) and analyzed using FlowJo software 10 (BD BioScience).
Fig. 2 G4 recognizes soluble forms of CD13, with higher affinity and selectivity than bestatin, and the membrane forms expressed on the surface of HUVEC cells. A Inhibitory effects of G4 and bestatin on the enzymatic activities of different aminopeptidases (rCD13, APA, and APB). Various amounts of G4 or bestatin were incubated with rCD13 (0.2 µg/mL in 60 mM Tris–HCl pH 7.4), APA (0.2 µg/mL in 60 mM Tris–HCl pH 7.4, 50 mM calcium chloride, 200 mM sodium chloride) or APB (0.2 µg/mL in 60 mM Tris–HCl pH 7.4, 100 mM potassium chloride) and the corresponding substrates at 0.1 mM (L-alanine-7-amido-4-methylcoumarin for rCD13, L-glutamic acid γ-(7-amido-4-methylcoumarin) for APA, and L-arginine-7-amido-4-methylcoumarin for APB). The mixtures were incubated for 30 min at 37 °C, and the cleavage of each substrate was monitored by measuring the fluorescence of methylcoumarin (λex 341 nm; λem 441 nm) using an Infinite 200 PRO plate reader (Tecan). Three independent experiments were performed for each enzyme. […] Substrate cleavage by sCD13 dissociated from mAb WM15 was then monitored by measuring the absorbance at 405 nm in each well using a plate reader (Bio-Rad). […] After incubation for 60 min at 4 °C, the cells were washed and analyzed by flow cytometry. Data are expressed as the percentage of counts vs. fluorescence intensity units […]

[2] = tested on: WEHI-164 fibrosarcoma; assay: Antitumor activity in WEHI-164 fibrosarcoma-bearing mice; format: in vivo
Procedure: Female BALB/c mice (Charles River Laboratories, Calco, Italy), weighing 16–18 g, were subcutaneously injected into the left flank of 10^6 WEHI-164 cells (ATCC, cat. CRL-1751, Lot. 63,682,839). Dose-finding experiments were performed with groups of six mice treated with G4-TNF (4, 20, or 100 pg/dose in 100 μL of 0.9% sodium chloride containing 100 µg/ml HSA, intraperitoneally injected on day 5) or vehicle. Tumor growth was monitored daily by measuring tumor volume with calipers, as previously described. The animals were sacrificed before the tumor diameter reached 1.0–1.5 cm. To test whether the antitumor activity of G4-TNF was mediated by CD13, tumor-bearing mice (6 animals/group) were treated with a single injection of G4-TNF (100 pg/dose, i.p.) in combination with peptide CNGRC (100 µg/dose) or anti-CD13 mAb R3-63 (25 µg/dose, given 1.5 h i.p. before administration of G4-TNF) 5 days after tumor implantation.
Fig. 3 Effect of G4-TNF on tumor growth and body weight of mice bearing WEHI-164 fibrosarcomas. A Mice bearing subcutaneous WEHI-164 tumors (5–6 mice/groups) were treated 5 days after tumor implantation with a single intraperitoneal injection of G4-TNF (0, 4, 20, or 100 pg). Tumor volume and body weight after treatment were monitored daily. B Effect of mAb R3-63 (anti-murine CD13 antibody, 25 µg) and CNGRC peptide (100 µg) on the antitumor activity of G4-TNF (100 pg) (5–6 mice/group). The arrows indicate the time of treatment. *P < 0.05; **P < 0.01, by Mann–Whitney analysis of the area under the curve for each tumor, with the GraphPad Prism software (mean ± SEM)
A) Mice bearing subcutaneous WEHI-164 tumors (6 mice/groups), were treated 5-6 days after tumor implantation with a single intraperitoneal injection of murine NGR-TNF (0, 25, 50, or 100 pg). Tumor volume and body weight after treatment were monitored daily.
B) Effect of murine TNF (50 pg) on tumor growth and body weight. The arrows indicate the time of treatment (mean ± SEM).

VGCARRYCS-TNF [G4-TNF, recombinant murine TNF fused to the C-terminus of G4]
Competition of mAb WM15 binding to HUVEC (in words) ([1]; Fig. 4C and 4D): competed the binding of mAb WM15 to endothelial cells
Competition of mAb WM15 binding to HUVEC (in words) ([1]; competitor 5 µM, mAb WM15 0.13 nM, 60 min, 4 °C, Supplementary Fig. S4D): competed with the binding of mAb WM15 (anti-CD13) to HUVEC to an extent similar to that observed with G4
Body weight and clinical signs of toxicity ([2]; mice after treatment with 4, 20 or 100 pg i.p.): No loss of body weight and no other clinical signs of toxicity
Antitumor effect (tumor growth) ([2]; single intraperitoneal injection of 100 pg, 5 days after tumor implantation): significant antitumor effects
